Measurements: PMC8391236, “Effect of Pterostilbene, a Natural Derivative of Resveratrol, in the Treatment of Colorectal Cancer through Top1/Tdp1-Mediated DNA Repair Pathway” (Cancers, 2021)

Tests used:
Top1 mRNA = experiment: qPCR of Top1 mRNA in cells; assay type: cell-based, Human; conditions: 6 h
Protocol: (§1) CL187 cells were treated with different concentrations of RE and PTE for 6, 12, 24 h, collected, and added with TRIzol (Thermo Fisher Scientific, Waltham, MA, USA). RNA was precipitated by isopropyl alcohol and washed with 75% ethanol prepared from diethylpyrocarbonate (DEPC) water. The obtained total RNA was dissolved in DEPC water and reverse transcribed into cDNA by a Hifair Ⅲ 1st strand cDNA Synthesis SuperMix for qPCR Kit (Yeasen Biotech, Shanghai, China). The resultant cDNA was used as a template, and the primer sequences were (5′→3′): Top1: F: […], R: […]; Tdp1: F: ACCAGAGTTCAGGAAGAAG, R: TCATAGAGCAGCAGCATC. GAPDH: F: […], R: TCTTCCTCTTGTGCTCTTG. Transcription levels of Top1, Tdp1, and GAPDH genes were determined by qPCR. The qPCR was performed as follows: 95 °C for 10 min, 40 cycles of 95 °C for 10 s, and 60 °C for 30 s. The cycle threshold (Ct) value was determined, and the RQ value was calculated.

siRNA-Top1 CL187 cells = experiment: Cell viability of Top1-silenced cells; assay type: cell-based, Human
Protocol: (§2) PTE or RE were dissolved in DMSO and diluted with culture medium to 1–100 μM. The final concentration of DMSO was less than 0.1%, and 0.1% DMSO as negative control. […] Exponentially growing cells were seeded in 96-well plates (5 × 10^3 cells/well) for 12 h. Various drugs were added separately and incubated for 24, 48, and 72 h. Cell viability was determined by CCK-8 (Beyotime Biotechnology, Shanghai, China) assay.

siRNA-Tdp1 CL187 cells [1] = experiment: Cell viability of Tdp1-silenced cells; assay type: cell-based; conditions: Homo sapiens, 36 h, siRNA-Tdp1 CL187, 36 h
[2] = test system: liver, kidney, lung, and paracancerous colon tissues; experiment: HE staining of organs of orthotopic xenograft mice; assay type: in vivo; conditions: orthotopic xenograft nude mice
Protocol: (§3) The mice were anaesthetized with 10% chloral hydrate and fixed on the operating table. After the abdomen of the mice was disinfected with iodine, a small section of the large intestine was squeezed out of the surgical opening. The 0.1 mL (per mouse) CL187 cell suspension (1 × 10^7 /mL) was inoculated into the colon wall of nude mice. After the inoculation, the large intestine was placed into the mouse abdominal cavity. After the wound was sutured, the mice were put into cages until they naturally woke up. After 10 days of inoculation, the animals were randomly divided into 4 groups (6 mice per group). Vector control group was intraperitoneally injected with 5% DMSO and 95% saline containing 30% HP-β-CD (i.p.). The drug dosage was designed according to the results of the previous pharmacokinetic experiment. Experimental Group 1 was intraperitoneal injected (i.p.) with PTE 100 mg/kg, and experiment Group 2 was intragastric administrated (i.g.) with PTE 500 mg/kg, once a day. The bioavailability of PTE was the same in the animals in the above regimens. Positive control group was injected with irinotecan, 20 mg/kg, twice a week. During the experiment, the changes of body weight of nude mice were recorded. After 21 days, the nude mice were sacrificed, the tumor blocks were removed surgically, weighed, and recorded. Tumor and organ tissues were paraffin-embedded and sectioned into 4 mm after being fixed in 4% of paraformaldehyde solution for 24 h. The sections were deparaffinized and rehydrated before detection. For histological observation, tumor sections were stained with hematoxylin and eosin (HE), and then observed by an inverted microscopy (Olympus, Japan).

Tdp1 mRNA = experiment: qPCR of Tdp1 mRNA in cells; assay type: cell-based, Human; conditions: 6 h
Protocol: as §1

siRNA-Tdp1 CL187 cells [3] = experiment: Cell viability of Tdp1-silenced cells; assay type: cell-based, Human
Protocol: as §2

[4] = test system: orthotopic CL187 xenograft; experiment: Orthotopic CL187 xenograft model; assay type: in vivo, BABLc/nude mice; conditions: for Tumor Weight: 21 days; for Ki67 labeling rate in tumor tissue: vector control 46.53±3.86%
Protocol: as §3, with “recorded.” for “recorded. Tumor and organ tissues were paraffin-embedded and sectioned into 4 mm after being fixed in 4% of paraformaldehyde solution for 24 h. The sections were deparaffinized and rehydrated before detection. For histological observation, tumor sections were stained with hematoxylin and eosin (HE), and then observed by an inverted microscopy (Olympus, Japan).”
Tumor and organ tissues were paraffin-embedded and sectioned into […] after being fixed in 4% of paraformaldehyde solution for 24 h. The sections were deparaffinized and rehydrated before detection. For histological observation, tumor sections were stained with hematoxylin and eosin (HE), and then observed by an inverted microscopy (Olympus, Japan).
For immunohistochemistry analysis, the sections were treated with 3% hydrogen peroxide for 10 min to block endogenous peroxidase, and then incubated with Ki67 primary antibody for overnight at 4 °C. Subsequently, the sections were treated with secondary antibody at room temperature for 20 min. After being washed with PBS, the sections were incubated with DAB chromogenic solution for 10 min, followed by rewashing in PBS. The sections were counterstained with hematoxylin after DAB coloration. The antibody specificity was confirmed by negative control without primary antibody treatment. Immunopositive areas were observed by an inverted microscope (Olympus, Japan).

COc1cc(/C=C/c2ccc(O)cc2)cc(OC)c1 [PTE, 3,5-dimethoxy-4′-hydroxy-trans-stilbene]
Top1 mRNA expression (Top1 mRNA; Tdp1-over CL187 cells): suppressed, but there was no significant difference
Top1 mRNA expression (Top1 mRNA; siRNA-Tdp1 CL187 cells): significantly down-regulated
Top1 mRNA expression (Top1 mRNA; wild-type CL187 cells): significantly inhibited
IC50 (siRNA-Top1 CL187 cells; Homo sapiens, 24 h, siRNA-Top1 CL187, 24 h): 70 ± 16.2 µM
IC50 (siRNA-Top1 CL187 cells; Homo sapiens, 48 h, siRNA-Top1 CL187, 48 h): 31.9 ± 8.11 µM
IC50 (siRNA-Top1 CL187 cells; Homo sapiens, 72 h, siRNA-Top1 CL187, 72 h): 20.2 ± 4.1 µM
IC50 (siRNA-Top1 CL187 cells; siRNA-Top1 CL187, 72 h): ~20 µM
IC50 (siRNA-Tdp1 CL187 cells [1]): 34.2 ± 7.33 µM
effect on lung inflammation (HE sections) [2]: no significant effect on lung inflammation
damage to the liver (HE sections) ([2]; treatment group vs solvent control): caused no additional damage
Tdp1 mRNA expression (Tdp1 mRNA; Tdp1-over CL187 cells): did not change significantly
Tdp1 mRNA expression (Tdp1 mRNA; siRNA-Top1 CL187 cells): inhibited without obvious trend
Tdp1 mRNA expression (Tdp1 mRNA; wild-type CL187 cells): significantly inhibited
IC50 (siRNA-Tdp1 CL187 cells [3]; Homo sapiens, 24 h, siRNA-Tdp1 CL187, 24 h): 74.2 ± 21.8 µM
IC50 (siRNA-Tdp1 CL187 cells [3]; Homo sapiens, 48 h, siRNA-Tdp1 CL187, 48 h): 24.8 ± 4.62 µM
IC50 (siRNA-Tdp1 CL187 cells [3]; Homo sapiens, 72 h, siRNA-Tdp1 CL187, 72 h): 18.4 ± 3.78 µM
IC50 (siRNA-Tdp1 CL187 cells [3]; siRNA-Tdp1 CL187, 72 h): ~20 µM
Tumor Weight ([4]; 100 mg/kg-i.p. once a day): 0.51 ± 0.12 g
Ki67 labeling rate in tumor tissue ([4]; 100 mg/kg-i.p.): 4.89 ± 1.82%
Tumor Weight ([4]; 500 mg/kg-i.g. once a day): 0.60 ± 0.06 g
Ki67 labeling rate in tumor tissue ([4]; 500 mg/kg-i.g.): 12.03 ± 3.40%
